Data on one compound can be found in patent US7153883B2, “Carboxylic acids and carboxylic acid isosteres of N-heterocyclic compounds” (GPI NIL Holdings Inc., priority 1998, dated 2006).

The experiment concerns the target Rotamase (Homo sapiens, UniProt P62942). As to the kind of experiment: Rotamase inhibition. Particulars: read-out: K1 Rotamase. It counts as biochemical.

Chain of Rotamase (P62942 2-108 limits assumed): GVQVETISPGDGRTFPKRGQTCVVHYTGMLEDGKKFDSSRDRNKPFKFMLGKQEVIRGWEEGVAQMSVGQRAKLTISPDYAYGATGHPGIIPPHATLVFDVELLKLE

In the case of `CCC(C)(C)C(=O)C(=O)N1CCSC1C(=O)OCCCc1cccnc1` (stereo not shown) [F], the Ki worked out at 272 nM.
